Reference: patent US20130317037A1, “METHOD OF ADMINISTRATION AND TREATMENT” (GlaxoSmithKline Intellectual Property Development Limited, priority 2010, published 2013)
Where two headings read alike, the source gives them in different places.

Assays:
Assay type in all cases: cell-based, human
EFM-19 = test: Panel A proliferation assay (CellTiter-Glo); HER2 Gain <5, KRAS WT, PIK3CA p.H1047L; conditions: for IC50: Homo sapiens
Method: (§1) A total of 15 breast cancer cell lines were used in this study. These cells were cultured in RPMI-1640 and supplemented with 5% or 10% fetal bovine serum, 2 mM GlutaMAX™ and 1 mM sodium pyruvate, or in growth medium recommended by the suppliers [American Type Culture Collection, Manassas, Va., USA; Developmental Therapeutics Program, National Cancer Institute, Bethesda, Md., USA; German Collection of Microorganisms and Cell Cultures (DSMZ), Braunschweig, Germany; European Collection of Cell Cultures (ECACC), Porton Down, UK]. Cells of each line were seeded into a 384-well microtiter plate at two cell densities. Low density ranges were 300-1800 cells/well, and a high density was 600 to 3600 cells/well). The plating density was determined by the rate of proliferation of the cell line in the absence of any inhibitor and varied amongst cell lines. High plating densities were double that of low density. Each cell density was plated in triplicate. In total there were 30 wells to be treated with increasing concentrations of Compound B for each cell line at each density. In addition, there were 24 wells of dimethyl sulfoxide (DMSO)-treated controls at each density. After seeding, the cells were incubated at 37° C. in 5% CO2 for 24 hours. Subsequently, Compound B was added to each cell line with 10 concentrations. The dosing solution of Compound B was first prepared in DMSO at a master stock concentration of 10 mM. […] were then made of the stock solution to give a range of working stock concentrations; 10.00 mM, 3.164 mM, 1.001 mM, 316.9 μM, 100.3 μM, 31.74 μM, 10.04 μM, 3.178 μM, 1.006 μM and 318.3 nM. The working stock concentrations of Compound B were then dispensed into the seeded cancer cell lines using a Biomek FX liquid handler to give final treatment concentrations of 0.1% of the stock concentration. A similar volume of DMSO without Compound B was dispensed into the 24 control wells of each seeding density at a concentration of 0.1%. Also, a zero-time plate prepared with a similar cell seeding was read for each cell line at each seeding density immediately after the addition of the DMSO control. After a 72 h incubation, an equal volume of the CellTiter-Glo (CellTiter-Glo Luminescent Cell Viability Assay, Promega, Madison, Wis.) to that of the cell culture medium was added into each well of the plate. After the contents were mixed to induce cell lysis and stabilization, cell luminescence was recorded using a SpectraMax M5^e (Molecular Devices, Sunnyvale, Calif., USA)
(§2) The luminescence of Compound B treated cells was compared relative to the average of the 24 DMSO-treated control wells at each cell density for every concentration of Compound B for all triplicate wells. The percent intensity values were used in model 205 of XLfit in Microsoft Excel to calculate gIC50s for the low and high seeding density (a 4 parameter logistical fit). Specifically, the midpoint of the growth window (the gIC50) falls half way between the number of cells at the time of compound addition (T=0) and the growth of control cells treated with DMSO. The gIC50 value serves as a metric for measuring the inhibition of proliferation in cancer cells. […] Finally, where data quality permits, the Ymin values (defined as the maximum growth inhibition relative to the cell density at Time-zero) were calculated as a measure of cytotoxicity where data were of reasonable quality.

BT-20 = test: Panel A proliferation assay (CellTiter-Glo); HER2 2 copies, KRAS WT, PIK3CA p.P539R; conditions: for IC50: Homo sapiens
Method: as §1, §2

HCC70 = test: Panel A proliferation assay (CellTiter-Glo); HER2 Loss 1 copy, KRAS WT, PIK3CA WT; conditions: for IC50: Homo sapiens
Method: as §1, §2

MCF7 = test: Panel A proliferation assay (CellTiter-Glo); HER2 Loss 1 copy, KRAS WT, PIK3CA p.E545K; conditions: for IC50: Homo sapiens
Method: as §1, §2

T-47D = test: Panel A proliferation assay (CellTiter-Glo); HER2 Gain <5, KRAS WT, PIK3CA p.H1047R; conditions: for IC50: Homo sapiens, T47D
Method: as §1, §2

UACC-812 = test: Panel A proliferation assay (CellTiter-Glo); HER2 Gain ≧5, KRAS WT, PIK3CA WT; conditions: for IC50: Homo sapiens
Method: as §1
(§3) The luminescence of Compound B treated cells was compared relative to the average of the 24 DMSO-treated control wells at each cell density for every concentration of Compound B for all triplicate wells. The percent intensity values were used in model 205 of XLfit in Microsoft Excel to calculate gIC50s for the low and high seeding density (a 4 parameter logistical fit). Specifically, the midpoint of the growth window (the gIC50) falls half way between the number of cells at the time of compound addition (T=0) and the growth of control cells treated with DMSO. The gIC50 value serves as a metric for measuring the inhibition of proliferation in cancer cells. The curves for each seeding density for each cell line were manually inspected for both data quality and appropriateness of curve fitting. Where the starting data were poor the curve and subsequent gIC50s were excluded from further analysis. Cell line seedings were considered of poor quality when the r^2 value of the fitted curve was <0.75. Finally, where data quality permits, the Ymin values (defined as the maximum growth inhibition relative to the cell density at Time-zero) were calculated as a measure of cytotoxicity where data were of reasonable quality.

SK-BR-3 = test: as above; conditions: for IC50: Homo sapiens
Method: as §1, §3

COc1ncc(-c2ccc3nccc(-c4ccnnc4)c3c2)cc1NS(=O)(=O)c1ccc(F)cc1F [Compound B, 2,4-difluoro-N-{2-(methyloxy)-5-[4-(4-pyridazinyl)-6-quinolinyl]-3-pyridinyl}benzenesulfonamide]
High Density Y-Min (EFM-19; EFM-19, high density, % of cells at T = 0): 22.7%
Low Density Y-Min (EFM-19; EFM-19, low density, % of cells at T = 0): 24.1%
IC50 (EFM-19; EFM-19, high seeding density, 72 h, read-out: High Density gIC50): 0.5 nM
IC50 (EFM-19; EFM-19, low seeding density, 72 h, read-out: Low Density gIC50): 0.6 nM
IC50 (EFM-19; EFM-19, mean of low and high density, read-out: Mean gIC50): 0.55 nM
High Density Y-Min (BT-20; BT-20, high density, % of cells at T = 0): 20.7%
Low Density Y-Min (BT-20; BT-20, low density, % of cells at T = 0): 10.7%
IC50 (BT-20; BT-20, high seeding density, 72 h, read-out: High Density gIC50): 7.8 nM
IC50 (BT-20; BT-20, low seeding density, 72 h, read-out: Low Density gIC50): 6.3 nM
IC50 (BT-20; BT-20, mean of low and high density, read-out: Mean gIC50): 7.05 nM
High Density Y-Min (HCC70; HCC70, high density, % of cells at T = 0): 8.7%
Low Density Y-Min (HCC70; HCC70, low density, % of cells at T = 0): 9.6%
IC50 (HCC70; HCC70, high seeding density, 72 h, read-out: High Density gIC50): 4.8 nM
IC50 (HCC70; HCC70, low seeding density, 72 h, read-out: Low Density gIC50): 4.6 nM
IC50 (HCC70; HCC70, mean of low and high density, read-out: Mean gIC50): 4.7 nM
IC50 (MCF7; MCF7, high seeding density, 72 h, read-out: High Density gIC50): 1.1 nM
IC50 (MCF7; MCF7, low seeding density, 72 h, read-out: Low Density gIC50): 2.5 nM
IC50 (MCF7; MCF7, mean of low and high density, read-out: Mean gIC50): 1.8 nM
High Density Y-Min (MCF7; MCF7, high density, % of cells at T = 0): 82.2%
Low Density Y-Min (MCF7; MCF7, low density, % of cells at T = 0): 78.5%
IC50 (T-47D; high seeding density, 72 h, read-out: High Density gIC50): 1.8 nM
IC50 (T-47D; low seeding density, 72 h, read-out: Low Density gIC50): 1.1 nM
IC50 (T-47D; mean of low and high density, read-out: Mean gIC50): 1.45 nM
High Density Y-Min (T-47D; high density, % of cells at T = 0): 103.6%
Low Density Y-Min (T-47D; low density, % of cells at T = 0): 104.6%
IC50 (UACC-812; UACC-812, high seeding density, 72 h, read-out: High Density gIC50): 0.1 nM
IC50 (UACC-812; UACC-812, low seeding density, 72 h, read-out: Low Density gIC50): 0.1 nM
IC50 (UACC-812; UACC-812, mean of low and high density, read-out: Mean gIC50): 0.1 nM
High Density Y-Min (UACC-812; UACC-812, high density, % of cells at T = 0): 12.6%
Low Density Y-Min (UACC-812; UACC-812, low density, % of cells at T = 0): 12.1%
IC50 (SK-BR-3; SK-BR-3, high seeding density, 72 h, read-out: High Density gIC50): 4.2 nM
IC50 (SK-BR-3; SK-BR-3, low seeding density, 72 h, read-out: Low Density gIC50): 2.9 nM
IC50 (SK-BR-3; SK-BR-3, mean of low and high density, read-out: Mean gIC50): 3.55 nM
High Density Y-Min (SK-BR-3; SK-BR-3, high density, % of cells at T = 0): 54.5%
Low Density Y-Min (SK-BR-3; SK-BR-3, low density, % of cells at T = 0): 52.3%
